Measured values reported in the NIST ThermoML archive (doi:10.1021/acs.jced.5b01023).

Test: xn = mol fraction of the nth substance listed
Settings: for surface tension liquid-gas: Wilhelmy plates; for viscosity / mass density: 101 kPa, Liquid; for viscosity: Capillary tube (Ostwald / Ubbelohde) method; for mass density: Vibrating tube method

CC(=O)[O-].CCn1cc[n+](C)c1 [1-ethyl-3-methylimidazolium acetate] + CCCO
Settings	mass density [kg/m3]	surface tension liquid-gas [mN/m]	viscosity [mPa·s]
288.15 K, x1 = 0.1017	869.4	25.8	4.866
288.15 K, x1 = 0.2004	915.48	27.4	7.99
288.15 K, x1 = 0.3001	953.82	29.7	13.36
288.15 K, x1 = 0.3998	986.05	31.7	22.26
288.15 K, x1 = 0.4997	1013.52	33.7	36.38
288.15 K, x1 = 0.5996	1037.16	35.6	57.47
288.15 K, x1 = 0.6998	1057.65	37.7	90.15
288.15 K, x1 = 0.8002	1075.6	40.2	135
288.15 K, x1 = 0.8991	1090.97	43.2	196.8
288.15 K, x1 = 1	1105.2	47.7	283.8
298.15 K, x1 = 0.1017	862.03	25.2	3.822
298.15 K, x1 = 0.2004	908.4	26.5	6.163
298.15 K, x1 = 0.3001	946.94	29.2	9.963
298.15 K, x1 = 0.3998	979.34	31	15.81
298.15 K, x1 = 0.4997	1006.95	33.1	24.44
298.15 K, x1 = 0.5996	1030.7	34.7	36.48
298.15 K, x1 = 0.6998	1051.29	37.2	53.65
298.15 K, x1 = 0.8002	1069.33	39.7	75.63
298.15 K, x1 = 0.8991	1084.89	42.7	103.9
298.15 K, x1 = 1	1099.03	47.1	139
308.15 K, x1 = 0.1017	854.63	24.7	3.038
308.15 K, x1 = 0.2004	901.33	25.8	4.878
308.15 K, x1 = 0.3001	940.1	28.7	7.657
308.15 K, x1 = 0.3998	972.66	30.7	11.7
308.15 K, x1 = 0.4997	1000.41	32.7	17.3
308.15 K, x1 = 0.5996	1024.28	34.2	24.75
308.15 K, x1 = 0.6998	1044.96	36.6	34.59
308.15 K, x1 = 0.8002	1063.09	39.2	46.49
308.15 K, x1 = 0.8991	1078.75	42.2	60.98
308.15 K, x1 = 1	1092.93	46.6	77.32
318.15 K, x1 = 0.1017	847.19	23.9	2.461
318.15 K, x1 = 0.2004	894.27	25.3	3.952
318.15 K, x1 = 0.3001	933.29	28.5	6.043
318.15 K, x1 = 0.3998	966.03	30.2	8.961
318.15 K, x1 = 0.4997	993.92	32.2	12.78
318.15 K, x1 = 0.5996	1017.9	33.3	17.58
318.15 K, x1 = 0.6998	1038.68	36.1	23.68
318.15 K, x1 = 0.8002	1056.89	38.8	30.86
318.15 K, x1 = 0.8991	1072.62	41.8	37.98
318.15 K, x1 = 1	1086.86	46.1	47.37
328.15 K, x1 = 0.1017	839.68	23	2.018
328.15 K, x1 = 0.2004	887.21	25	3.268
328.15 K, x1 = 0.3001	926.51	27.9	4.878
328.15 K, x1 = 0.3998	959.44	30	7.05
328.15 K, x1 = 0.4997	987.48	31.7	9.766
328.15 K, x1 = 0.5996	1011.58	33.1	13.01
328.15 K, x1 = 0.6998	1032.45	35.8	17.05
328.15 K, x1 = 0.8002	1050.74	38.1	21.36
328.15 K, x1 = 0.8991	1066.53	41.4	25.84
328.15 K, x1 = 1	1080.82	45.9	31.29
338.15 K, x1 = 0.1017	832.08	22.3	1.68
338.15 K, x1 = 0.2004	880.13	24	2.686
338.15 K, x1 = 0.3001	919.75	27.3	3.946
338.15 K, x1 = 0.3998	952.89	29.5	5.672
338.15 K, x1 = 0.4997	981.08	31.3	7.675
338.15 K, x1 = 0.5996	1005.3	32.6	9.978
338.15 K, x1 = 0.6998	1026.26	35.5	12.68
338.15 K, x1 = 0.8002	1044.63	37.9	15.57
338.15 K, x1 = 0.8991	1060.48	41.2	18.49
338.15 K, x1 = 1	1074.83	45.4	21.85
348.15 K, x1 = 0.1017	824.34	21.5	1.413
348.15 K, x1 = 0.2004	873.02	23.6	2.26
348.15 K, x1 = 0.3001	912.99	27.1	3.292
348.15 K, x1 = 0.3998	946.36	29.3	4.651
348.15 K, x1 = 0.4997	974.71	30.8	6.175
348.15 K, x1 = 0.5996	999.06	31.8	7.866
348.15 K, x1 = 0.6998	1020.12	34.5	9.81
348.15 K, x1 = 0.8002	1038.57	37.6	11.81
348.15 K, x1 = 0.8991	1054.49	41	13.78
348.15 K, x1 = 1	1068.88	45.1	16.01

CC(=O)[O-].CCn1cc[n+](C)c1 [1-ethyl-3-methylimidazolium acetate] + CC(C)O
Settings	mass density [kg/m3]	surface tension liquid-gas [mN/m]	viscosity [mPa·s]
288.15 K, x1 = 0.1	852.68	23.6	5.55
288.15 K, x1 = 0.2	901.6	25.5	8.842
288.15 K, x1 = 0.3	941.78	27.5	14.85
288.15 K, x1 = 0.4	976.37	29.4	24.85
288.15 K, x1 = 0.5	1006.01	31.5	40.69
288.15 K, x1 = 0.5997	–	33	–
288.15 K, x1 = 0.5998	1031.55	–	64.17
288.15 K, x1 = 0.7	1053.83	35.1	100.7
288.15 K, x1 = 0.7993	1072.97	–	147.9
288.15 K, x1 = 0.7994	–	37.7	–
288.15 K, x1 = 0.9	1090.17	41.2	212.4
288.15 K, x1 = 1	1105.2	47.7	283.8
298.15 K, x1 = 0.1	845.22	23.2	4.171
298.15 K, x1 = 0.2	894.12	25.1	6.64
298.15 K, x1 = 0.3	934.95	26.9	10.84
298.15 K, x1 = 0.4	969.7	29	17.31
298.15 K, x1 = 0.5	999.47	31.2	26.86
298.15 K, x1 = 0.5997	–	32.6	–
298.15 K, x1 = 0.5998	1025.12	–	40.4
298.15 K, x1 = 0.7	1047.51	34.5	58.42
298.15 K, x1 = 0.7993	1066.77	–	81.31
298.15 K, x1 = 0.7994	–	37.4	–
298.15 K, x1 = 0.9	1084.05	40.9	109.9
298.15 K, x1 = 1	1099.03	47.1	139
308.15 K, x1 = 0.1	837.68	22.5	3.204
308.15 K, x1 = 0.2	887.04	24.6	5.142
308.15 K, x1 = 0.3	928.14	26.6	8.186
308.15 K, x1 = 0.4	963.07	28.3	12.6
308.15 K, x1 = 0.5	992.98	30.5	18.61
308.15 K, x1 = 0.5997	–	32.1	–
308.15 K, x1 = 0.5998	1018.74	–	26.86
308.15 K, x1 = 0.7	1041.21	34.1	36.9
308.15 K, x1 = 0.7993	1060.56	–	49.32
308.15 K, x1 = 0.7994	–	37	–
308.15 K, x1 = 0.9	1077.92	40.5	63.37
308.15 K, x1 = 1	1092.93	46.6	77.32
318.15 K, x1 = 0.1	829.99	21.8	2.511
318.15 K, x1 = 0.2	879.94	24.1	4.067
318.15 K, x1 = 0.3	921.35	26.1	6.344
318.15 K, x1 = 0.4	956.47	27.9	9.506
318.15 K, x1 = 0.5	986.52	29.9	13.61
318.15 K, x1 = 0.5997	–	31.6	–
318.15 K, x1 = 0.5998	1012.39	–	18.87
318.15 K, x1 = 0.7	1034.96	33.7	25.08
318.15 K, x1 = 0.7993	1054.38	–	32.33
318.15 K, x1 = 0.7994	–	36.8	–
318.15 K, x1 = 0.9	1071.81	40.2	40.36
318.15 K, x1 = 1	1086.86	46.1	47.37
328.15 K, x1 = 0.1	822.14	20.8	1.998
328.15 K, x1 = 0.2	872.8	23.5	3.272
328.15 K, x1 = 0.3	914.57	25.5	5.049
328.15 K, x1 = 0.4	949.91	27.4	7.378
328.15 K, x1 = 0.5	980.11	29.6	10.28
328.15 K, x1 = 0.5997	–	31.5	–
328.15 K, x1 = 0.5998	1006.1	–	13.77
328.15 K, x1 = 0.7	1028.76	33.4	17.83
328.15 K, x1 = 0.7993	1048.25	–	22.39
328.15 K, x1 = 0.7994	–	36.4	–
328.15 K, x1 = 0.9	1065.74	40	27.23
328.15 K, x1 = 1	1080.82	45.9	31.29
338.15 K, x1 = 0.1	814.08	20.1	1.617
338.15 K, x1 = 0.2	865.6	22.6	2.683
338.15 K, x1 = 0.3	907.78	25	4.086
338.15 K, x1 = 0.4	943.37	26.9	5.876
338.15 K, x1 = 0.5	973.74	29.1	8.019
338.15 K, x1 = 0.5997	–	30.7	–
338.15 K, x1 = 0.5998	999.84	–	10.46
338.15 K, x1 = 0.7	1022.6	32.9	13.23
338.15 K, x1 = 0.7993	1042.17	–	16.22
338.15 K, x1 = 0.7994	–	36	–
338.15 K, x1 = 0.9	1059.72	39.3	19.37
338.15 K, x1 = 1	1074.83	45.4	21.85
